Data as given in the supplement of paper PMC10307832.

How the values were obtained:
Assay in all cases: relative viability (nuclei count vs DMSO), 5 days (fraction); higher = more cells survive
[1] = compound: C1=CC(=CC=C1C2=CC(=C(S2)NC(=O)N)C(=O)N)F [TPCA-1] + O=C(CCCCCCC(=O)Nc1ccccc1)NO [Vorinostat] (partner 1 µM)
How it was run: (§1)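 Each reported value is a median over duplicate plates. It expresses relative viability: treated-well nuclei count divided by vehicle-well nuclei count. Lung cancer cell lines in 1536-well plates were dosed by pin tool a day after seeding, alone with one drug or with a fixed anchor-drug dose plus five library-drug doses (not always all listed) in √10 steps, and nuclei were counted after 5 days.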

[2] = compound: C[C@]12O[C@H](C[C@]1(O)CO)n1c3ccccc3c3c4c(c5c6ccccc6n2c5c31)CNC4=O [Lestaurtinib] + Cc1nc(Nc2ncc(C(=O)Nc3c(C)cccc3Cl)s2)cc(N2CCN(CCO)CC2)n1 [Dasatinib] (partner 0.075 µM)
How it was run: as §1

[3] = compound: C1/C(=C\C2=CC=CS2)/C(=O)/C(=C/C3=CC=CS3)/C1 + Cc1nc(NC(=O)N2CCC[C@H]2C(N)=O)sc1-c1ccnc(C(C)(C)C(F)(F)F)c1 [Alpelisib] (partner 2 µM)
How it was run: as §1

[4] = compound: C1=CC(=CC=C1C2=CC(=C(S2)NC(=O)N)C(=O)N)F [TPCA-1] + CC(=O)Nc1cccc(-n2c(=O)n(C3CC3)c(=O)c3c(Nc4ccc(I)cc4F)n(C)c(=O)c(C)c32)c1 [Trametinib] (partner 0.02 µM)
How it was run: as §1

| Cell Line | relative viability ([1]; first compound 0.04 µM) | relative viability ([1]; first compound 0.1265 µM) | relative viability ([1]; first compound 0.4 µM) | relative viability ([1]; first compound 1.265 µM) | relative viability ([1]; first compound 4 µM) | relative viability ([2]; first compound 0.005 µM) | relative viability ([2]; first compound 0.01581 µM) | relative viability ([2]; first compound 0.05 µM) | relative viability ([2]; first compound 0.1581 µM) | relative viability ([2]; first compound 0.5 µM) | relative viability ([3]; first compound 0.2 µM) | relative viability ([3]; first compound 0.6325 µM) | relative viability ([3]; first compound 2 µM) | relative viability ([3]; first compound 6.325 µM) | relative viability ([3]; first compound 20 µM) | relative viability ([4]; first compound 0.04 µM) | relative viability ([4]; first compound 0.1265 µM) | relative viability ([4]; first compound 0.4 µM) | relative viability ([4]; first compound 1.265 µM) | relative viability ([4]; first compound 4 µM) |
| --- | --- | --- | --- | --- | --- | --- | --- | --- | --- | --- | --- | --- | --- | --- | --- | --- | --- | --- | --- | --- |
| NCI-H2170 | 0.965 | 0.881 | 0.779 | 0.724 | 0.628 | 0.493 | 0.551 | 0.466 | 0.364 | 0.376 | 0.888 | 0.775 | 0.758 | 0.638 | 0.749 | 0.903 | 0.907 | 0.937 | 0.866 | 0.455 |
| NCI-H522 | 1.03 | 0.819 | 1 | 0.842 | 0.987 | 0.798 | 0.807 | 0.934 | 0.821 | 0.493 | – | – | – | – | – | 0.872 | 0.737 | 0.901 | 0.766 | 0.6 |
| LCLC-97TM1 | 0.844 | 0.488 | 0.905 | 0.365 | 0.0988 | 0.841 | 0.853 | 0.629 | 0.753 | 0.191 | 0.255 | 0.225 | 0.272 | 0.212 | 0.248 | 0.208 | 0.152 | 0.163 | 0.205 | 0.204 |
| NCI-H1299 | – | – | – | – | – | – | – | – | – | – | 1.04 | 1.08 | 1.03 | 0.948 | 1.04 | – | – | – | – | – |
| NCI-H3122 | 1.34 | 0.814 | 0.955 | 1 | 0.897 | 0.881 | 0.871 | 0.869 | 1.15 | 0.598 | 0.887 | 0.785 | 0.876 | 0.488 | 0.891 | 0.228 | 0.177 | 0.228 | 0.243 | 0.215 |
| NCI-H1395 | 0.637 | 0.645 | 0.856 | 0.604 | 0.55 | 0.423 | 0.402 | 0.398 | 0.373 | 0.363 | 1.1 | 1.04 | 1.17 | 1.02 | 1.08 | 1.23 | 0.939 | 1.11 | 1.05 | 0.884 |
| NCI-H2009 | 0.746 | 0.785 | 0.693 | 0.757 | 0.675 | 0.257 | 0.227 | 0.2 | 0.211 | 0.118 | 0.991 | 1.2 | 1.16 | 1.14 | 1.13 | 0.309 | 0.249 | 0.303 | 0.321 | 0.211 |
| NCI-H1651 | 0.571 | 0.429 | 0.629 | 0.496 | 0.239 | 0.395 | 0.557 | 0.393 | 0.443 | 0.248 | 1.11 | 0.899 | 1.03 | – | 0.975 | 0.894 | 0.799 | 0.838 | 0.824 | 0.787 |
| HARA | 0.55 | 0.51 | 0.528 | 0.433 | 0.361 | 0.27 | 0.3 | 0.21 | 0.261 | 0.238 | 0.802 | 0.78 | 0.885 | 0.598 | 0.861 | 0.8 | 1.11 | 0.7 | 0.63 | 0.677 |
| NCI-H1944 | 0.648 | 0.709 | 0.675 | 0.512 | 0.521 | 0.207 | 0.23 | 0.176 | 0.137 | 0.147 | 0.864 | 0.8 | 0.855 | 0.713 | 0.818 | 0.423 | 0.373 | 0.426 | 0.355 | 0.294 |
| Calu-6 | – | – | – | – | – | – | – | – | – | – | 0.971 | 1.08 | 1.04 | 0.849 | 1.01 | – | – | – | – | – |
| NCI-H1703 | – | – | – | – | – | – | – | – | – | – | 0.41 | 0.453 | 0.334 | 0.287 | 0.318 | – | – | – | – | – |
| NCI-H1650 | 0.717 | 0.575 | 0.584 | 0.675 | 0.498 | 0.263 | 0.345 | 0.391 | 0.387 | 0.144 | – | – | – | – | – | 0.662 | 0.545 | 0.602 | 0.565 | 0.655 |
| NCI-H2342 | 0.77 | 0.699 | 0.681 | 0.683 | 0.663 | 0.328 | 0.314 | 0.264 | 0.313 | 0.259 | – | – | – | – | – | 0.792 | 0.685 | 0.79 | 0.829 | 0.944 |
| NCI-H1792 | – | – | – | – | – | 1.04 | 1.33 | 0.65 | 0.835 | 0.616 | 0.803 | 0.763 | 0.711 | – | 0.697 | 0.489 | 0.333 | 0.394 | 0.374 | 0.243 |
| ChaGo-K-1 | 0.781 | 0.694 | 0.796 | 0.665 | 0.295 | 0.654 | 0.601 | 0.552 | 0.547 | 0.292 | – | – | – | – | – | 0.895 | 0.715 | 0.876 | 0.822 | 0.676 |
| NCI-H1623 | – | – | – | – | – | 0.493 | 0.576 | 0.584 | 0.513 | 0.497 | – | – | – | – | – | – | – | – | – | – |
| HCC-44 | 1.09 | 1.07 | 0.95 | 1.1 | 0.85 | – | – | – | – | – | 0.751 | 0.856 | 0.813 | 0.668 | 0.799 | 1.09 | 0.983 | 1.09 | 0.914 | 1.02 |
| SW 900 | – | – | 0.515 | 0.422 | 0.45 | 0.739 | 0.702 | 0.445 | 0.57 | 0.32 | – | – | – | – | – | – | – | 0.775 | 0.909 | 0.764 |
| ABC-1 | 1.4 | 1.14 | 1.38 | 1.29 | 0.926 | 0.547 | 0.648 | 0.482 | 0.451 | 0.218 | 1.06 | 1.17 | 1.11 | 0.881 | 0.739 | – | – | – | – | – |
| NCI-H1648 | 0.4 | 0.486 | 0.528 | 0.704 | 0.631 | – | – | – | – | – | – | – | – | – | – | 0.505 | 0.473 | 0.378 | 0.169 | 0.582 |
| IA-LM | 1.02 | 0.942 | 0.999 | – | 0.699 | – | – | – | – | – | 0.728 | 0.746 | 0.651 | 0.679 | 0.768 | – | – | – | – | – |
| A549 | – | – | – | – | – | – | – | – | – | – | 0.608 | 0.867 | 0.746 | 0.483 | 0.73 | – | – | – | – | – |
